Measurements from ChEMBL document CHEMBL1201862, “PubChem BioAssay data set” (2004).
Several values for one entry are separate records, joined by “and”; a condition that tells them apart may be missing. Equal entries are not always repeated.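 All cell lines were grown in 96-well plates and treated with compound for 48 hours. GI50 marks 50% less growth.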 Activity calls are given as the source filed them. Cut-off read from the data, not from the text of the source: active = GI50 up to about 1.1 µM and inactive = higher.

Key:
Experiment in all cases: DTP human tumour cell line panel, 48 h
HL-60 = system: HL-60
OVCAR-3 = system: OVCAR-3
MDA-MB-231 = system: MDA-MB-231
HOP-92 = system: HOP-92
NCI-H522 = system: NCI-H522
UACC-62 = system: UACC-62
HCC 2998 = system: HCC 2998
HOP-18 = system: HOP-18
SF-539 = system: SF-539
EKVX = system: EKVX
SN12C = system: SN12C
MOLT-4 = system: MOLT-4
CAKI-1 = system: CAKI-1
MDA-MB-435 = system: MDA-MB-435
A498 = system: A498
HCT-116 = system: HCT-116
HT-29 = system: HT-29
CCRF-CEM = system: CCRF-CEM
K562 = system: K562
Malme-3M = system: Malme-3M
BT-549 = system: BT-549
SF-295 = system: SF-295
SK-OV-3 = system: SK-OV-3
SK-MEL-5 = system: SK-MEL-5
KM12 = system: KM12
ACHN = system: ACHN
SF-268 = system: SF-268
SR = system: SR
DU-145 = system: DU-145
M14 = system: M14
UO-31 = system: UO-31
LOX IMVI = system: LOX IMVI
OVCAR-8 = system: OVCAR-8
A549 = system: A549
NCI-H226 = system: NCI-H226
Hs-578T = system: Hs-578T
TK-10 = system: TK-10
NCI-H460 = system: NCI-H460
786-0 = system: 786-0
LXFL 529 = system: LXFL 529
OVCAR-5 = system: OVCAR-5
SK-MEL-28 = system: SK-MEL-28
COLO 205 = system: COLO 205
MCF7 = system: MCF7
UACC-257 = system: UACC-257
SNB-75 = system: SNB-75
RXF 393 = system: RXF 393
NCI/ADR-RES = system: NCI/ADR-RES
KM-20L2 = system: KM-20L2
NCI-H23 = system: NCI-H23
IGROV-1 = system: IGROV-1
SW-620 = system: SW-620
DLD-1 = system: DLD-1
M19-MEL = system: M19-MEL
SNB-19 = system: SNB-19
OVCAR-4 = system: OVCAR-4
SK-MEL-2 = system: SK-MEL-2
HCT-15 = system: HCT-15
U-251 = system: U-251
HOP-62 = system: HOP-62
DMS-114 = system: DMS-114
RPMI-8226 = system: RPMI-8226
SNB-78 = system: SNB-78
PC-3 = system: PC-3
DMS-273 = system: DMS-273

In the case of `Cn1c(O)c(C(=O)Nc2ccc([N+](=O)[O-])cc2)c(=O)n(C)c1=S`, the GI50 (HL-60) is reported as 2.25 µM (inactive), the GI50 (OVCAR-3) is reported as 2.37 µM (inactive) and the GI50 (MDA-MB-231) is reported as 2.54 µM (inactive). For the same compound, the GI50 (HOP-92) was 1.54 µM (inactive), the GI50 (NCI-H522) was 2.32 µM (inactive) and the GI50 (UACC-62) was 1.23 µM (inactive). The GI50 (HCC 2998) was 2.47 µM (inactive), the GI50 (HOP-18) was 2.84 µM (inactive) and the GI50 (SF-539) was 1.9 µM (inactive). The GI50 (EKVX) was 2.9 µM (inactive), the GI50 (SN12C) was 3.13 µM (inactive) and the GI50 (MOLT-4) was 3.08 µM (inactive). For the same compound, the GI50 (CAKI-1) was 2.81 µM (inactive), the GI50 (MDA-MB-435) was 1.51 µM (inactive) and the GI50 (A498) was 0.499 µM (active). The GI50 (HCT-116) was 2.26 µM (inactive), the GI50 (HT-29) was 2.23 µM (inactive) and the GI50 (CCRF-CEM) was 2.38 µM (inactive). The GI50 (K562) was 3.53 µM (inactive), the GI50 (Malme-3M) was 2.11 µM (inactive) and the GI50 (BT-549) was 1.17 µM (inactive). For the same compound, the GI50 (SF-295) was 1.31 µM (inactive), the GI50 (SK-OV-3) was 3.64 µM (inactive) and the GI50 (SK-MEL-5) was 0.776 µM (active). The GI50 (KM12) was 2.49 µM (inactive), the GI50 (ACHN) was 2.48 µM (inactive) and the GI50 (SF-268) was 2.64 µM (inactive). For the same compound, the GI50 (SR) was 3.63 µM (inactive), the GI50 (DU-145) was 2.02 µM (inactive) and the GI50 (M14) was 3.37 µM (inactive). For the same compound, the GI50 (UO-31) was 1.54 µM (inactive), the GI50 (LOX IMVI) was 2.69 µM (inactive) and the GI50 (OVCAR-8) was 2.14 µM (inactive). The GI50 (A549) was 3.42 µM (inactive), the GI50 (NCI-H226) was 4.33 µM (inactive) and the GI50 (Hs-578T) was 0.617 µM (active). The GI50 (TK-10) was 2.77 µM (inactive), the GI50 (NCI-H460) was 2.82 µM (inactive) and the GI50 (786-0) was 2.67 µM (inactive). The GI50 (LXFL 529) was 3.3 µM (inactive), the GI50 (OVCAR-5) was 4.91 µM (inactive) and the GI50 (SK-MEL-28) was 1.88 µM (inactive). The GI50 (COLO 205) was 3.31 µM (inactive), the GI50 (MCF7) was 1.78 µM (inactive) and the GI50 (UACC-257) was 2.32 µM (inactive). The GI50 (SNB-75) was 1.63 µM (inactive), the GI50 (RXF 393) was 1.12 µM (active) and the GI50 (NCI/ADR-RES) was 2.79 µM (inactive). For the same compound, the GI50 (KM-20L2) was 4.21 µM (inactive), the GI50 (NCI-H23) was 1.42 µM (inactive) and the GI50 (IGROV-1) was 2.55 µM (inactive). For the same compound, the GI50 (SW-620) was 3.49 µM (inactive), the GI50 (DLD-1) was 3.7 µM (inactive) and the GI50 (M19-MEL) was 3.69 µM (inactive). The GI50 (SNB-19) was 2.16 µM (inactive), the GI50 (OVCAR-4) was 2.71 µM (inactive) and the GI50 (SK-MEL-2) was 1.82 µM (inactive). The GI50 (HCT-15) was 2.13 µM, the GI50 (U-251) was 2.23 µM (inactive) and the GI50 (HOP-62) was 1.23 µM (inactive). For the same compound, the GI50 (DMS-114) was 2.27 µM (inactive), the GI50 (RPMI-8226) was 3.15 µM (inactive) and the GI50 (SNB-78) was 2.18 µM (inactive). For the same compound, the GI50 (PC-3) was 1.34 µM (inactive).
`COc1ccc(-c2cc(-c3ccco3)c(C#N)c(=O)n2C2OC(COC(C)=O)C(OC(C)=O)C(OC(C)=O)C2OC(C)=O)cc1` (configuration not stated) was tested, and the GI50 (HOP-92) was 24.9 µM (inactive) and 22.1 µM (inactive), the GI50 (HCC 2998) was > 100 µM (inactive) and the GI50 (EKVX) was > 100 µM (inactive). For the same compound, the GI50 (MOLT-4) was > 100 µM (inactive), the GI50 (CAKI-1) was > 100 µM (inactive) and 63.5 µM (inactive) and the GI50 (SK-MEL-5) was > 100 µM (inactive). The GI50 (KM12) was 69.7 µM (inactive), the GI50 (SR) was > 100 µM (inactive) and the GI50 (A549) was > 100 µM (inactive). The GI50 (NCI-H226) was 2.63 µM (inactive), the GI50 (TK-10) was 20 µM (inactive) and 28.1 µM (inactive) and the GI50 (LXFL 529) was 11.4 µM (inactive). The GI50 (OVCAR-5) was > 100 µM (inactive), the GI50 (COLO 205) was > 100 µM (inactive) and the GI50 (UACC-257) was > 100 µM (inactive). For the same compound, the GI50 (SNB-75) was > 100 µM (inactive) and 58.9 µM (inactive), the GI50 (KM-20L2) was > 100 µM (inactive) and the GI50 (NCI-H23) was > 100 µM (inactive). The GI50 (SW-620) was > 100 µM (inactive), the GI50 (DLD-1) was 50.9 µM (inactive) and the GI50 (M19-MEL) was 76 µM (inactive). The GI50 (OVCAR-4) was > 100 µM (inactive), the GI50 (DMS-273) was > 100 µM (inactive) and the GI50 (RPMI-8226) was 5.58 µM (inactive) and 3.96 µM (inactive). The GI50 (SNB-78) was > 100 µM (inactive).
In the case of `O=C1c2ccccc2N2OC3C4CCC(C4)C3C12c1ccccc1` (configuration not stated), the GI50 (HL-60) is reported as 33.5 µM (inactive), the GI50 (HOP-92) is reported as 40.8 µM (inactive) and the GI50 (NCI-H522) is reported as 36 µM (inactive). For the same compound, the GI50 (UACC-62) was 93.8 µM (inactive), the GI50 (HCC 2998) was > 100 µM (inactive) and the GI50 (HOP-18) was > 100 µM (inactive). The GI50 (SF-539) was > 100 µM (inactive), the GI50 (EKVX) was > 100 µM (inactive) and the GI50 (SN12C) was 86.9 µM (inactive). For the same compound, the GI50 (MOLT-4) was 32.1 µM (inactive), the GI50 (A498) was > 100 µM (inactive) and the GI50 (HCT-116) was 45.5 µM (inactive). For the same compound, the GI50 (HT-29) was 61.4 µM (inactive), the GI50 (CCRF-CEM) was 44.2 µM (inactive) and the GI50 (K562) was 47 µM (inactive). For the same compound, the GI50 (Malme-3M) was > 100 µM (inactive), the GI50 (SF-295) was > 100 µM (inactive) and the GI50 (SK-OV-3) was > 100 µM (inactive). The GI50 (SK-MEL-5) was 60.8 µM (inactive), the GI50 (ACHN) was > 100 µM (inactive) and the GI50 (SF-268) was > 100 µM (inactive). For the same compound, the GI50 (SR) was 44.1 µM (inactive), the GI50 (M14) was 92.5 µM (inactive) and the GI50 (UO-31) was 71.3 µM (inactive). The GI50 (OVCAR-8) was > 100 µM (inactive), the GI50 (A549) was 55.5 µM (inactive) and the GI50 (NCI-H226) was > 100 µM (inactive). The GI50 (786-0) was > 100 µM (inactive), the GI50 (LXFL 529) was 73.8 µM (inactive) and the GI50 (SK-MEL-28) was 87.3 µM (inactive). For the same compound, the GI50 (COLO 205) was > 100 µM (inactive), the GI50 (UACC-257) was 70 µM (inactive) and the GI50 (SNB-75) was > 100 µM (inactive). For the same compound, the GI50 (RXF 393) was 16.5 µM (inactive), the GI50 (KM-20L2) was 98.2 µM (inactive) and the GI50 (NCI-H23) was 94.6 µM (inactive). The GI50 (IGROV-1) was > 100 µM (inactive), the GI50 (SW-620) was > 100 µM (inactive) and the GI50 (DLD-1) was 18.3 µM (inactive). For the same compound, the GI50 (M19-MEL) was 93.1 µM (inactive), the GI50 (SNB-19) was > 100 µM (inactive) and the GI50 (OVCAR-4) was > 100 µM (inactive). For the same compound, the GI50 (DMS-273) was 39.6 µM (inactive), the GI50 (HCT-15) was 45.8 µM and the GI50 (U-251) was 86.5 µM (inactive). The GI50 (HOP-62) was > 100 µM (inactive), the GI50 (DMS-114) was 62.5 µM (inactive) and the GI50 (RPMI-8226) was 37.1 µM (inactive).
